Experimental data reported in PubChem BioAssay (NCI).
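Dose response: 5 concentrations. Exposure: 48 h. Format: 96-well plates. Endpoint: linear interpolation; highest concentration if not reached. GI50 is the concentration that inhibits growth by half. Definition used: TGI = concentration required for complete inhibition of growth.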

Tests used:
Assay in all cases: DTP human tumour cell line panel, 48 h
786-0 renal = test system: 786-0 renal
EKVX NSCLC = test system: EKVX NSCLC
IGROV1 ovarian = test system: IGROV1 ovarian
M14 melanoma = test system: M14 melanoma
MOLT-4 leukemia = test system: MOLT-4 leukemia
RXF 393 renal = test system: RXF 393 renal
SF-268 CNS = test system: SF-268 CNS
SK-MEL-28 melanoma = test system: SK-MEL-28 melanoma
SK-OV-3 ovarian = test system: SK-OV-3 ovarian
UACC-62 melanoma = test system: UACC-62 melanoma

| Compound | TGI (786-0 renal) | TGI (EKVX NSCLC) | TGI (IGROV1 ovarian) | TGI (M14 melanoma) | TGI (MOLT-4 leukemia) | TGI (RXF 393 renal) | TGI (SF-268 CNS) | TGI (SK-MEL-28 melanoma) | TGI (SK-OV-3 ovarian) | TGI (UACC-62 melanoma) | GI50 (786-0 renal) | GI50 (EKVX NSCLC) | GI50 (IGROV1 ovarian) | GI50 (M14 melanoma) | GI50 (MOLT-4 leukemia) | GI50 (RXF 393 renal) | GI50 (SF-268 CNS) | GI50 (SK-MEL-28 melanoma) | GI50 (SK-OV-3 ovarian) | GI50 (UACC-62 melanoma) |
| --- | --- | --- | --- | --- | --- | --- | --- | --- | --- | --- | --- | --- | --- | --- | --- | --- | --- | --- | --- | --- |
| O=C(CCCCCCCCC(=O)OCCCn1cc(C(=O)NC(=O)OCc2ccccc2)c(=O)[nH]c1=O)OCCCn1cc(C(=O)NC(=O)OCc2ccccc2)c(=O)[nH]c1=O | > 100 µM | > 100 µM | > 100 µM | > 100 µM | > 100 µM | > 100 µM | > 100 µM | > 100 µM | > 100 µM | > 100 µM | – | – | – | – | – | – | – | – | – | – |
| CCOc1cccc2cccnc12 | > 100 µM | > 100 µM | > 100 µM | > 100 µM | > 100 µM | > 100 µM | > 100 µM | > 100 µM | > 100 µM | > 100 µM | – | – | – | – | – | – | – | – | – | – |
| CC1=NN(C(=O)CC(=O)Nc2ccccc2)C(=O)C1N=Nc1ccc(S(N)(=O)=O)cc1 (stereo not drawn) | > 100 µM | > 100 µM | > 100 µM | > 100 µM | > 100 µM | > 100 µM | > 100 µM | > 100 µM | > 100 µM | 92.6 µM | – | – | – | – | – | – | – | – | – | – |
| OCCOCn1nc(-c2ccccc2)nc1-c1cnccn1 | > 100 µM | > 100 µM | > 100 µM | > 100 µM | > 100 µM | > 100 µM | > 100 µM | > 100 µM | > 100 µM | > 100 µM | – | – | – | – | – | – | – | – | – | – |
| COc1ccc(CNCCN2C(=O)c3ccc4c5c(ccc(c35)C2=O)C(=O)N(CCNCc2ccc(OC)cc2)C4=O)cc1 | 2.49 µM | 1.73 µM | 0.67 µM | 0.348 µM | 0.92 µM | 0.981 µM | 1.17 µM | 2.56 µM | 2.37 µM | 1.5 µM | 1.17 µM | 0.455 µM | 0.204 µM | 0.169 µM | 0.282 µM | 0.225 µM | 0.284 µM | 1.21 µM | 1.13 µM | 0.392 µM |
| CC1CCC(O)/C=C/C(=O)OC(C)C(O)/C=C/C(=O)O1 (stereo not drawn) | > 100 µM | > 100 µM | > 100 µM | > 100 µM | > 100 µM | > 100 µM | > 100 µM | > 100 µM | > 100 µM | > 100 µM | – | – | – | – | – | – | – | – | – | – |
| COC(=O)c1ccc2c(c1)[n+](=O)c(C(C)=O)c(C(F)(F)F)n2[O-] | 3.37 µM | 4.35 µM | 3.39 µM | 3.2 µM | 17.6 µM | 3.86 µM | 3.24 µM | 13.2 µM | 4.48 µM | 3.14 µM | 1.91 µM | 1.94 µM | 1.75 µM | 1.75 µM | 2.95 µM | 2.04 µM | 1.76 µM | 4.31 µM | 2.22 µM | 1.71 µM |
| Cc1cc(C)c2nc(Nc3nc(C)c(C)c(=O)[nH]3)nc(C)c2c1 | 12.3 µM | 10.9 µM | 12.8 µM | 8.79 µM | 9.37 µM | 7.55 µM | 13.8 µM | 7.64 µM | 10.3 µM | 5.5 µM | 2.4 µM | 2.58 µM | 2.85 µM | 2.58 µM | 2.35 µM | 2.39 µM | 2.82 µM | 2.35 µM | 2.5 µM | 2.08 µM |
| Cn1c(=O)c2[nH]c(Nc3ccccc3)nc2n(C)c1=O | > 10 µM | > 10 µM | > 10 µM | > 10 µM | > 10 µM | > 10 µM | > 10 µM | > 10 µM | > 10 µM | > 10 µM | – | – | – | – | – | – | – | – | – | – |
| COc1cc(C2CC(c3ccc(C)cc3)=NN2C(C)=O)ccc1Oc1ccnc2cc(Cl)ccc12 (stereo not drawn) | 10.4 µM | > 100 µM | > 100 µM | > 100 µM | > 100 µM | > 100 µM | > 100 µM | > 100 µM | > 100 µM | > 100 µM | 1.17 µM | > 100 µM | 38.2 µM | > 100 µM | > 100 µM | 3.57 µM | 38.4 µM | > 100 µM | 32.4 µM | > 100 µM |
| CC(=O)OC1CC[C@@]2(C)C(CC(OC3OC(CO)C(O)C(O)C3O)[C@]3(C)C2CCC24CC23CC[C@H]4C(C)CC(O)[C@@H](O)C(C)(C)O)C1(C)C (stereo partly drawn) | 30.7 µM | 48.6 µM | 22.1 µM | 22.6 µM | 24.7 µM | 30.1 µM | > 50 µM | 17.4 µM | > 50 µM | 16.6 µM | – | – | – | – | – | – | – | – | – | – |
| COc1cc2c(cc1OC)[C@@H]1[C@H](C2=O)c2ccc([N+](=O)[O-])cc2C(=O)N1CCCBr | 0.285 µM | > 100 µM | 1.93 µM | 0.0139 µM | – | 2.22 µM | > 39.4 µM | > 100 µM | > 100 µM | 1.16 µM | < 0.0489 µM | 1.78 µM | < 0.01 µM | < 0.01 µM | < 0.018 µM | 0.285 µM | – | 2.54 µM | 1.32 µM | < 0.046 µM |
